In US20160237059A1, “HETEROCYCLIC SUBSTITUTED TRIFLUOROMETHYL PYRIMIDINONES AND THEIR USE” (BAYER PHARMA AKTIENGESELLSCHAFT, priority 2013, published 2016):

Tests used:
human CCR2 = target: T1, human CCR2 (Homo sapiens, UniProt P41597); test: Functional Ca2+ release test (B-1); format: cell-based; settings: Chem-1 cell line transfected with human CCR2; 50% inhibition of the MCP-1 effect, MCP-1 at EC50 (about 5 nM); in some cases means of several determinations
T1 construct: host or cells: Chem-1 cell line
T1 sequence (P41597 1-360 isoform P41597-2): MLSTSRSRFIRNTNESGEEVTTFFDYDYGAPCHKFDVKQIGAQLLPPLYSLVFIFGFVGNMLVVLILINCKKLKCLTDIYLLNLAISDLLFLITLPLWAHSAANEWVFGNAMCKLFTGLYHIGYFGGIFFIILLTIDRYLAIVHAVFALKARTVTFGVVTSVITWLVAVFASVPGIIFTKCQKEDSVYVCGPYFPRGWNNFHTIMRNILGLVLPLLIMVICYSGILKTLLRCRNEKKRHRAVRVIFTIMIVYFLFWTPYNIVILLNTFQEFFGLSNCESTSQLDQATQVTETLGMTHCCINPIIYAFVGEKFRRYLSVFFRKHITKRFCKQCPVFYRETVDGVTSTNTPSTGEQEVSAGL
Procedure, shortened: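 Inhibition of MCP-1-evoked Ca2+ release was measured over 120 s by fluorescence imaging in Fluo-4-loaded, human CCR2-transfected Chem-1 cells. Compounds, tested in 10-point 1:3.16 series, were added 10 min before agonist at its EC50 (typically about 5 nM). IC50 values were obtained by 4-parameter logistic fitting.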

murine CCR2 = target: T2, murine CCR2 (Mus musculus, UniProt P51683); test: Functional β-arrestin recruiting test with human MCP-1 (B-2a); format: cell-based; settings: U2OS β-arrestin cell line transfected with murine CCR2; agonist human MCP-1 at EC50 (about 3 nM); in some cases means of several determinations
T2 construct: host or cells: U2OS β-arrestin cell line
T2 sequence (P51683 whole entry): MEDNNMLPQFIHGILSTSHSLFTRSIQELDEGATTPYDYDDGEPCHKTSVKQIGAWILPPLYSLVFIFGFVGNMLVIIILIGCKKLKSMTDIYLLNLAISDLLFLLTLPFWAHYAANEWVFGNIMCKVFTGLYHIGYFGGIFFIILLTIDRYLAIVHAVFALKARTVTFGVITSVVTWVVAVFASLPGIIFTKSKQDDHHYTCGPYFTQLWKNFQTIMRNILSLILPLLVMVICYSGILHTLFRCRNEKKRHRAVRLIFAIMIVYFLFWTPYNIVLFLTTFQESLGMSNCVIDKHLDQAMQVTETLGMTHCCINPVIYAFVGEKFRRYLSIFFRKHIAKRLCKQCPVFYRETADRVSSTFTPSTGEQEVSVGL
Procedure, shortened: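 Antagonist mode in U2OS cells expressing murine CCR2, read by PathHunter β-galactosidase complementation luminescence. Cells pre-incubated 10 min with 10-point compound dilutions (1:3.16 steps), then stimulated with human MCP-1 at its EC50 (usually about 3 nM) for 90 min at 37° C.; IC50 from 4-parameter logistic fit.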

IC50 (human CCR2)	IC50 (murine CCR2)	Compound
3.9 nM	180 nM	O=c1[nH]c(-c2ccc(Cl)cn2)nc(C(F)(F)F)c1Oc1ccc(Cl)c(Cl)c1 [Example 8, 2-(5-chloropyridin-2-yl)-5-(3,4-dichlorophenoxy)-6-(trifluoromethyl)pyrimidin-4(3H)-one]
83 nM	370 nM	O=c1[nH]c(Cc2ccncc2)nc(C(F)(F)F)c1Cc1ccc(Cl)c(Cl)c1 [Example 93, 5-(3,4-dichlorobenzyl)-2-(pyridin-4-ylmethyl)-6-(trifluoromethyl)pyrimidin-4(3H)-one]
4.4 nM	110 nM	Cc1cc(-c2nc(C(F)(F)F)c(Cc3ccc(Cl)c(Cl)c3)c(=O)[nH]2)nn1C [Example 55, 5-(3,4-dichlorobenzyl)-2-(1,5-dimethyl-1H-pyrazol-3-yl)-6-(trifluoromethyl)pyrimidin-4(3H)-one]
4.8 nM	150 nM	O=c1[nH]c(-c2ncc(C(F)(F)F)cc2Cl)nc(C(F)(F)F)c1Oc1ccc(Cl)c(Cl)c1 [Example 6, 2-[3-chloro-5-(trifluoromethyl)pyridin-2-yl]-5-(3,4-dichlorophenoxy)-6-(trifluoromethyl)pyrimidin-4(3H)-one]
100 nM	490 nM	O=c1[nH]c(Cc2ccsc2)nc(C(F)(F)F)c1Cc1ccc(Cl)c(Cl)c1 [Example 97, 5-(3,4-dichlorobenzyl)-2-(3-thienylmethyl)-6-(trifluoromethyl)pyrimidin-4(3H)-one]
83 nM	1300 nM	Cc1cc(C)n(-c2nc(C(F)(F)F)c(Cc3ccc(Cl)c(Cl)c3)c(=O)[nH]2)n1 [Example 57, 5-(3,4-dichlorobenzyl)-2-(3,5-dimethyl-1H-pyrazol-1-yl)-6-(trifluoromethyl)pyrimidin-4(3H)-one]
15 nM	140 nM	O=c1[nH]c(-c2cccc(Cl)n2)nc(C(F)(F)F)c1Oc1ccc(Cl)c(Cl)c1 [Example 10, 2-(6-chloropyridin-2-yl)-5-(3,4-dichlorophenoxy)-6-(trifluoromethyl)pyrimidin-4(3H)-one]
27 nM	310 nM	Cn1ncc(-c2nc(C(F)(F)F)c(Oc3ccc(Cl)c(Cl)c3)c(=O)[nH]2)c1N [Example 68, 2-(5-amino-1-methyl-1H-pyrazol-4-yl)-5-(3,4-dichlorophenoxy)-6-(trifluoromethyl)pyrimidin-4(3H)-on]
150 nM	1400 nM	O=c1[nH]c(-c2cccc(O)n2)nc(C(F)(F)F)c1Oc1ccc(Cl)c(Cl)c1 [Example 31, 5-(3,4-dichlorophenoxy)-2-(6-hydroxypyridin-2-yl)-6-(trifluoromethyl)pyrimidin-4(3H)-one]
41 nM	380 nM	O=c1[nH]c(Nc2cn[nH]c2)nc(C(F)(F)F)c1Cc1ccc(Cl)c(C(F)(F)F)c1 [Example 105]
56 nM	120 nM	O=c1[nH]c(-c2ncccc2Cl)nc(C(F)(F)F)c1Oc1ccc(F)c(F)c1 [Example 13, 2-(3-chloropyridin-2-yl)-5-(3,4-difluorophenoxy)-6-(trifluoromethyl)pyrimidin-4(3H)-one]
6.2 nM	140 nM	O=c1[nH]c(-c2cccc(Cl)n2)nc(C(F)(F)F)c1Oc1ccc(Cl)c(C(F)(F)F)c1 [Example 36, 2-(6-chloropyridin-2-yl)-5-[4-chloro-3-(trifluoromethyl)phenoxy]-6-(trifluoromethyl)pyrimidin-4(3H)-one]
160 nM	1400 nM	O=c1[nH]c(NC2CCOC2)nc(C(F)(F)F)c1Oc1ccc(Cl)c(Cl)c1 (stereo not drawn) [Example 245]
51 nM	1100 nM	O=c1[nH]c(-c2cc(O)ccn2)nc(C(F)(F)F)c1Oc1ccc(Cl)c(Cl)c1 [Example 32, 5-(3,4-dichlorophenoxy)-2-(4-hydroxypyridin-2-yl)-6-(trifluoromethyl)pyrimidin-4(3H)-one]
9.7 nM	300 nM	Cc1ccc(-c2nc(C(F)(F)F)c(Cc3ccc(Cl)c(Cl)c3)c(=O)[nH]2)nc1 [Example 19]
